{"source": "patent US10123984B2", "about": "“Neprilysin inhibitors” (THERAVANCE BIOPHARMA R&D IP, LLC, priority 2011, dated 2018)", "key": {"[1]": {"biological_target": "T1, NEP (Homo sapiens (Human), UniProt P08473)", "experiment": "Assay 1: in vitro enzyme inhibition assay at human NEP (fluorogenic peptide substrate)", "assay_type": "biochemical", "conditions": "pKi values at human NEP", "description": "The assays were performed in 384-well white opaque plates at 37° C. using the fluorogenic peptide substrates at a concentration of 10 μM in Assay Buffer (NEP: 50 mM HEPES, pH 7.5, 100 mM NaCl, 0.01% polyethylene glycol sorbitan monolaurate (Tween-20), 10 μM ZnSO4; ACE: 50 mM HEPES, pH 7.5, 100 mM NaCl, 0.01% Tween-20, 1 μM ZnSO4).\nTest compounds were assayed over the range of concentrations from 10 μM to 20 pM. Test compounds were added to the enzymes and incubated for 30 minute at 37° C. prior to initiating the reaction by the addition of substrate. Reactions were terminated after 20 minutes of incubation at 37° C. by the addition of glacial acetic acid to a final concentration of 3.6% (v/v).\nInhibition constants were obtained by nonlinear regression of the data using the equation (GraphPad Software, Inc., San Diego, Calif.): v=v0/[1+(I/K′)] where v is the reaction rate, v0 is the uninhibited reaction rate, I is the inhibitor concentration and K′ is the apparent inhibition constant."}, "[2]": {"biological_target": "T1, NEP", "conditions": "relative to 21a (succinic acid substituent); quoted from Ksander et al.; cited from earlier work"}, "[3]": {"conditions": "comparative examples, exact values"}}}
{"compound": "O=C(O)CC(=O)N[C@H](Cc1ccc(-c2ccccc2)cc1)CC(O)C(=O)O", "note": "(stereo partly drawn) [Comparative Compound C, (R)-5-Biphenyl-4-yl-4-(2-carboxyacetylamino)-2-hydroxypentanoic Acid]", "values": [{"measurement": "Ki", "setting": "[1]; [3]", "value": 200, "unit": "nM"}]}
{"compound": "O=C(O)CCC(=O)N[C@H](Cc1ccc(-c2ccccc2)cc1)CC(O)C(=O)O", "note": "(stereo partly drawn) [Comparative Compound D, (R)-5-Biphenyl-4-yl-4-(3-carboxypropionylamino)-2-hydroxypentanoic Acid]", "values": [{"measurement": "Ki", "setting": "[1]; [3]", "value": 39.8, "unit": "nM"}]}
{"compound": "O=C(O)CCCC(=O)N[C@H](Cc1ccc(-c2ccccc2)cc1)CC(O)C(=O)O", "note": "(stereo partly drawn) [Comparative Compound E, (R)-5-Biphenyl-4-yl-4-(4-carboxybutyrylamino)-2-hydroxypentanoic Acid]", "values": [{"measurement": "Ki", "setting": "[1]; [3]", "value": 50.1, "unit": "nM"}]}
{"compound": "O=C(O)CC(=O)N[C@H](Cc1ccc(-c2ccccc2)cc1)C[C@@H](CO)C(=O)O", "note": "[Comparative Compound F, (2S,4S)-5-Biphenyl-4-yl-4-(2-carboxy-acetylamino)-2-hydroxymethylpentanoic Acid]", "values": [{"measurement": "Ki", "setting": "[1]; [3]", "value": 6.31, "unit": "nM"}]}
{"compound": "O=C(O)CCC(=O)N[C@H](Cc1ccc(-c2ccccc2)cc1)C[C@@H](CO)C(=O)O", "note": "[Comparative Compound G, (2S,4S)-5-Biphenyl-4-yl-4-(3-carboxy-propionylamino)-2-hydroxymethylpentanoic Acid]", "values": [{"measurement": "Ki", "setting": "[1]; [3]", "value": 1, "unit": "nM"}]}
{"compound": "O=C(O)CCCC(=O)N[C@H](Cc1ccc(-c2ccccc2)cc1)C[C@@H](CO)C(=O)O", "note": "[Comparative Compound H, (2S,4S)-5-Biphenyl-4-yl-4-(4-carboxy-butyrylamino)-2-hydroxymethylpentanoic Acid]", "values": [{"measurement": "Ki", "setting": "[1]; [3]", "value": 2.51, "unit": "nM"}]}
{"compound": "O=C(O)CC(=O)N[C@H](Cc1ccc(-c2cccc(Cl)c2)cc1)C[C@@H](O)C(=O)O", "note": "[Comparative Compound I, (2R,4R)-4-(2-Carboxy-acetylamino)-5-(3′-chloro-biphenyl-4-yl)-2-hydroxy-pentanoic Acid]", "values": [{"measurement": "Ki", "setting": "[1]; [3]", "value": 3.98, "unit": "nM"}]}
{"compound": "O=C(O)CCC(=O)N[C@H](Cc1ccc(-c2cccc(Cl)c2)cc1)C[C@@H](O)C(=O)O", "note": "[Comparative Compound J, (2R,4R)-4-(3-Carboxy-propionylamino)-5-(3′-chloro-biphenyl-4-yl)-2-hydroxy-pentanoic Acid]", "values": [{"measurement": "Ki", "setting": "[1]; [3]", "value": 0.316, "unit": "nM"}]}
{"compound": "O=C(O)CCCC(=O)N[C@H](Cc1ccc(-c2cccc(Cl)c2)cc1)C[C@@H](O)C(=O)O", "note": "[Comparative Compound K, (2R,4R)-4-(4-Carboxy-butyrylamino)-5-(3′-chloro-biphenyl-4-yl)-2-hydroxy-pentanoic Acid]", "values": [{"measurement": "Ki", "setting": "[1]; [3]", "value": 0.501, "unit": "nM"}]}
{"compound": "O=C(O)C(=O)N[C@H](Cc1ccc(-c2ccccc2)cc1)CC(O)C(=O)O", "note": "(stereo partly drawn) [Example 1, (R)-5-Biphenyl-4-yl-2-hydroxy-4-(oxalylamino)pentanoic Acid]", "values": [{"measurement": "Ki", "setting": "[1]; [3]", "value": 12.6, "unit": "nM"}]}
{"compound": "O=C(O)C(=O)N[C@H](Cc1ccc(-c2cccc(Cl)c2)cc1)C[C@@H](O)C(=O)O", "note": "[Example 2A, (2R,4R)-5-(3′-Chlorobiphenyl-4-yl)-2-hydroxy-4-(oxalylamino)pentanoic Acid]", "values": [{"measurement": "Ki", "setting": "[1]; [3]", "value": 0.2, "unit": "nM"}]}
{"compound": "O=C(N[C@H](Cc1ccc(-c2cccc(Cl)c2)cc1)C[C@@H](O)C(=O)O)C(=O)OCCC(F)(F)F", "note": "[Example 2N, (2R,4R)-5-(3′-Chlorobiphenyl-4-yl)-2-hydroxy-4-[(3,3,3-trifluoropropoxyoxalyl)-amino]pentanoic Acid]", "values": [{"measurement": "pKi", "setting": "[1]; reported as ranges", "value": "≥9"}]}
{"compound": "CC(C)COC(=O)C(=O)N[C@H](Cc1ccc(-c2cc(Cl)ccc2Cl)cc1)C[C@@H](O)C(=O)O", "note": "[Example 3D, (2R,4R)-5-(2′,5′-Dichlorobiphenyl-4-yl)-2-hydroxy-4-(isobutoxyoxalylamino)-pentanoic Acid]", "values": [{"measurement": "Ki", "setting": "[1]; reported as ranges", "value": "≤ 1", "unit": "nM"}]}
{"compound": "O=C(O)C(=O)N[C@H](Cc1ccc(-c2ccccc2F)cc1)C[C@@H](CO)C(=O)O", "note": "[Example 7B, (2S,4S)-5-(2′-Fluorobiphenyl-4-yl)-2-hydroxymethyl-4-(oxalylamino)pentanoic Acid]", "values": [{"measurement": "Ki", "setting": "[1]; reported as ranges", "value": "≤ 1", "unit": "nM"}]}
{"compound": "O=C(O)C(=O)NN(Cc1ccc(-c2cc(Cl)ccc2F)cc1)C[C@@H](O)C(=O)O", "note": "[Example 14A, (R)-3-[N-(5′-Chloro-T-fluorobiphenyl-4-ylmethyl)-N-oxalylhydrazino]-2-hydroxypropionic Acid]", "values": [{"measurement": "Ki", "setting": "[1]; reported as ranges", "value": "≤ 1", "unit": "nM"}]}
{"compound": "CC(C)COC(=O)C(=O)NN(Cc1ccc(-c2cc(Cl)ccc2F)cc1)C[C@@H](O)C(=O)O", "note": "[Example 14C, (R)-3-[N-(5′-Chloro-2′-fluorobiphenyl-4-ylmethyl)-N′-isobutoxyoxalylhydrazino]-2-hydroxypropionic Acid]", "values": [{"measurement": "Ki", "setting": "[1]; reported as ranges", "value": "1.26 to 10", "unit": "nM"}]}
{"compound": "C[C@H](C[C@@H](Cc1ccc(-c2ccccc2)cc1)NC(=O)CCCC(=O)O)C(=O)O", "note": "[Example 21e]", "values": [{"measurement": "decrease in activity", "setting": "[2]", "value": 18, "unit": "fold"}]}
{"compound": "C[C@H](C[C@@H](Cc1ccc(-c2ccccc2)cc1)NC(=O)CCCCC(=O)O)C(=O)O", "note": "[Example 21f]", "values": [{"measurement": "decrease in activity", "setting": "[2]", "value": 65, "unit": "fold"}]}
{"compound": "C[C@H](CC(Cc1ccc(-c2ccccc2)cc1)NC(=O)CC(=O)O)C(=O)O", "note": "(stereo partly drawn) [Example 21g]", "values": [{"measurement": "decrease in activity", "setting": "[2]", "value": 18, "unit": "fold"}]}
{"compound": "(2R,4R)-5-(3,3′-Dichlorobiphenyl-4-yl)-2-hydroxy-4-(oxalylamino)pentanoic acid ethyl ester [Example 5-17]", "values": [{"measurement": "pKi", "setting": "[1]; reported as ranges", "value": "≥9"}]}
{"compound": "(R)-3-N-(3,5′-Dichloro-2′-fluorobiphenyl-4-ylmethyl)-N′-oxalyl-hydrazinol-2-hydroxypropionic acid [Example 5-13]", "values": [{"measurement": "pKi", "setting": "[1]; reported as ranges", "value": "≥9"}]}
